Laboratory results reported in ChEMBL document CHEMBL6153040, “Discovery of the salicylaldehyde-based compound DDO-02267 as a lysine-targeting covalent inhibitor of ALKBH5” (Eur J Med Chem, 2025).
Active and inactive are the calls of the source. The calls are words filed in the database; no cut-off is given here.

Assays:
RNA demethylase ALKBH5 [1] = molecular target: T1, RNA demethylase ALKBH5 (Homo sapiens, UniProt Q6P6C2); assay: Inhibition of ALKBH5 in human MV4-11 cells assessed as increase in m6A methylation levels by m6A RNA Methylation Quantification Kit based colorimetric analysis; format: cell-based; settings: dose 10-80 µM
Target sequence in this assay (Q6P6C2 2-394 limits assumed): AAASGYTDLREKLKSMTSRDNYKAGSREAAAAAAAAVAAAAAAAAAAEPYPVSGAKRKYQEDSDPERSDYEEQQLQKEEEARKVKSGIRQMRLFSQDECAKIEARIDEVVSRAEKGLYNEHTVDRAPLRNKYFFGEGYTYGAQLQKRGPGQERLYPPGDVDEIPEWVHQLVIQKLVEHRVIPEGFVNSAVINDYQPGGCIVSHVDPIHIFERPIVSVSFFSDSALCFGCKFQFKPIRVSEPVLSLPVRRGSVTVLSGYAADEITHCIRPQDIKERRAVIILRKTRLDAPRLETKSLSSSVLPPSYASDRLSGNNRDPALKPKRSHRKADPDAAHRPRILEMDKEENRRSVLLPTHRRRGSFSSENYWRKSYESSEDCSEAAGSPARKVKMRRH

RNA demethylase ALKBH5 [2] = molecular target: T1, RNA demethylase ALKBH5; assay: Inhibition of ALKBH5 (66 to 292 residues) (unknown origin) extracted from Escherichia coli BL21 (DE3) cells using m6A ssDNA as substrate assessed as maximum inactivation rate constant (Kinact) measured after 6 hrs by fluorescence polarization assay
Target sequence in this assay (Q6P6C2 2-394 limits assumed): as above

RNA demethylase ALKBH5 [3] = molecular target: T1, RNA demethylase ALKBH5; assay: Inhibition of ALKBH5 (66 to 292 residues) (unknown origin) extracted from Escherichia coli BL21 (DE3) cells using m6A ssDNA as substrate measured immediately by fluorescence polarization assay
Target sequence in this assay (Q6P6C2 whole entry, the tested form may be a part): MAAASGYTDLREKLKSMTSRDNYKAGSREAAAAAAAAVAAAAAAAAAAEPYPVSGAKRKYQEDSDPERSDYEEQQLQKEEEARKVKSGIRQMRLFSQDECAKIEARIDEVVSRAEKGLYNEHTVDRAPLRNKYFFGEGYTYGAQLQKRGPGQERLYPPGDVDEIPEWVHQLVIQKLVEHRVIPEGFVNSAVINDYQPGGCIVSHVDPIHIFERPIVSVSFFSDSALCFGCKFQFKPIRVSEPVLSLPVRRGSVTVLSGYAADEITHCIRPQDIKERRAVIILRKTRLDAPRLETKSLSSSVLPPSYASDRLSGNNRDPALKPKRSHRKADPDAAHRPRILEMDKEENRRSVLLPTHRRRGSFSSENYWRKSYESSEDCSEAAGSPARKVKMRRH

[4] = Selectivity ratio of IC50 for ALKBH3 (unknown origin) to IC50 for ALKBH5 (66 to 292 residues) (unknown origin) extracted from Escherichia coli BL21 (DE3) cells by restriction enzyme digestion assay
MOLM-13 [5] = assay: Induction of apoptosis in human MOLM-13 cells assessed as viable cells at 80 uM incubated for 72 hrs by Annexin V FITC/PI staining based flow cytometry analysis (reference value: 89.65%); format: functional; settings: read-out: Activity
RNA demethylase ALKBH5 [6] = molecular target: T1, RNA demethylase ALKBH5; assay: Inhibition of ALKBH5 (66 to 292 residues) (unknown origin) extracted from Escherichia coli BL21 (DE3) cells using m6A ssDNA as substrate at 5 uM incubated for 2 hrs by TBE-PAGE based restriction enzyme digestion assay
Target sequence in this assay (Q6P6C2 2-394 limits assumed): as the sequence (Q6P6C2 2-394 limits assumed) above

[7] = test system: RNA demethylase ALKBH5 (Homo sapiens), Q6P6C2 [K132E]; assay: Inhibition of ALKBH5 K132E mutant (66 to 292 residues) (unknown origin) extracted from Escherichia coli BL21 (DE3) cells using m6A ssDNA as substrate at 0.5 to 100 uM incubated for 2 hrs by restriction enzyme digestion assay; settings: dose 0.5-100 µM
MOLM-13 [8] = assay: Induction of apoptosis in human MOLM-13 cells assessed as late apoptotic cells at 80 uM incubated for 72 hrs by Annexin V FITC/PI staining based flow cytometry analysis (reference value: 4.28 %); format: functional
MOLM-13 [9] = assay: Induction of cell cycle arrest in human MOLM-13 cells assessed as accumulation of cells at S phase at 40 uM incubated for 72 hrs by flow cytometry analysis (reference value: 17.47 %); format: functional
RNA demethylase ALKBH5 [10] = molecular target: T1, RNA demethylase ALKBH5; assay: Binding affinity to ALKBH5 (66 to 292 residues) (unknown origin) extracted from Escherichia coli BL21 (DE3) cells at 1:1 protein:compound ratio by mass spectrometry analysis
Target sequence in this assay (Q6P6C2 2-394 limits assumed): as above

RNA demethylase ALKBH5 [11] = molecular target: T1, RNA demethylase ALKBH5; assay: Inhibition of ALKBH5 (66 to 292 residues) (unknown origin) extracted from Escherichia coli BL21 (DE3) cells using m6A ssDNA as substrate measured after 180 mins by fluorescence polarization assay
Target sequence in this assay (Q6P6C2 whole entry, the tested form may be a part): as the sequence (Q6P6C2 whole entry, the tested form may be a part) above

RNA demethylase ALKBH5 [12] = molecular target: T1, RNA demethylase ALKBH5; assay: Covalent binding affinity to ALKBH5 (66 to 292 residues) (unknown origin) extracted from Escherichia coli BL21 (DE3) cells at Lys132 residue by HPLC-MS/MS analysis
Target sequence in this assay (Q6P6C2 2-394 limits assumed): as the sequence (Q6P6C2 2-394 limits assumed) above

RNA demethylase ALKBH5 [13] = molecular target: T1, RNA demethylase ALKBH5; assay: Binding affinity to ALKBH5 (66 to 292 residues) (unknown origin) extracted from Escherichia coli BL21 (DE3) cells assessed as dissociation constant by ITC analysis
Target sequence in this assay (Q6P6C2 whole entry, the tested form may be a part): as the sequence (Q6P6C2 whole entry, the tested form may be a part) above

RNA demethylase ALKBH5 [14] = molecular target: T1, RNA demethylase ALKBH5; assay: Inhibition of ALKBH5 (66 to 292 residues) (unknown origin) extracted from Escherichia coli BL21 (DE3) cells using m6A ssDNA as substrate measured after 300 mins by fluorescence polarization assay
Target sequence in this assay (Q6P6C2 whole entry, the tested form may be a part): as above

MOLM-13 [15] = assay: Induction of cell cycle arrest in human MOLM-13 cells assessed as accumulation of cells at G2/M phase at 80 uM incubated for 72 hrs by flow cytometry analysis (reference value: 17.53 %); format: functional
[16] = molecular target: T2, Alpha-ketoglutarate-dependent dioxygenase FTO (Homo sapiens, UniProt Q9C0B1); assay: Inhibition of FTO (32 to 505 residues) (unknown origin) extracted from Escherichia coli BL21 (DE3) cells by fluorescence polarization assay
MOLM-13 [17] = assay: Induction of cell cycle arrest in human MOLM-13 cells assessed as accumulation of cells at G2/M phase at 40 uM incubated for 72 hrs by flow cytometry analysis (reference value: 17.53 %); format: functional
MOLM-13 [18] = assay: Induction of cell cycle arrest in human MOLM-13 cells assessed as accumulation of cells at S phase at 80 uM incubated for 72 hrs by flow cytometry analysis (reference value: 17.47 %); format: functional
MOLM-13 [19] = assay: Downregulation of AXL mRNA expression levels in human MOLM-13 cells at 10 to 80 uM incubated for 72 hrs by qRT-PCR analysis; format: functional, cell-based; settings: dose 10-80 µM
[20] = molecular target: T3, Alpha-ketoglutarate-dependent dioxygenase alkB homolog 3 (Homo sapiens) (UniProt Q96Q83); assay: Induction of thermal stabilization of ALKBH3 (unknown origin) assessed as change in melting temperature by thermal shift assay
T3 sequence (whole entry): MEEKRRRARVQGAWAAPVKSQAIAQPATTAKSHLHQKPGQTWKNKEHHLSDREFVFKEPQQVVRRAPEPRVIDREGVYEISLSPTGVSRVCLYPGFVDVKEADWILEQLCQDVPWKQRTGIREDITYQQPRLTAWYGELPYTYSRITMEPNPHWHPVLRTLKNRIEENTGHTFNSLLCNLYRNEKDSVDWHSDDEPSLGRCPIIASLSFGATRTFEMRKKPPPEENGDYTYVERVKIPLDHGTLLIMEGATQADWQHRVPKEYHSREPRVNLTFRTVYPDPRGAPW

RNA demethylase ALKBH5 [21] = molecular target: T1, RNA demethylase ALKBH5; assay: Inhibition of ALKBH5 (66 to 292 residues) (unknown origin) extracted from Escherichia coli BL21 (DE3) cells using m6A ssDNA as substrate measured after 20 mins by fluorescence polarization assay
Target sequence in this assay (Q6P6C2 whole entry, the tested form may be a part): as the sequence (Q6P6C2 whole entry, the tested form may be a part) above

[22] = molecular target: T2, Alpha-ketoglutarate-dependent dioxygenase FTO; assay: Inhibition of FTO (32 to 505 residues) (unknown origin) extracted from Escherichia coli BL21 (DE3) cells using m6A ssDNA as substrate incubated for 2 hrs by TBE-PAGE based restriction enzyme digestion assay
MOLM-13 [23] = assay: Induction of apoptosis in human MOLM-13 cells assessed as viable cells at 40 uM incubated for 72 hrs by Annexin V FITC/PI staining based flow cytometry analysis (reference value: 89.65%); format: functional; settings: read-out: Activity
MOLM-13 [24] = assay: Induction of apoptosis in human MOLM-13 cells assessed as early apoptotic cells at 80 uM incubated for 72 hrs by Annexin V FITC/PI staining based flow cytometry analysis (reference value: 4.32%); format: functional
RNA demethylase ALKBH5 [25] = molecular target: T1, RNA demethylase ALKBH5; assay: Inhibition of ALKBH5 (66 to 292 residues) (unknown origin) extracted from Escherichia coli BL21 (DE3) cells using m6A ssDNA as substrate measured after 40 mins by fluorescence polarization assay
Target sequence in this assay (Q6P6C2 whole entry, the tested form may be a part): as the sequence (Q6P6C2 whole entry, the tested form may be a part) above

RNA demethylase ALKBH5 [26] = molecular target: T1, RNA demethylase ALKBH5; assay: Binding affinity to ALKBH5 in human MOLM-13 cells assessed as protection of pronase-mediated protein degradation at 12.5 to 50 uM preincubated for 30 mins followed by protease addition and measured after 10 mins by DARTS method; format: cell-based; settings: dose 12.5-50 µM, time 40.0 min
Target sequence in this assay (Q6P6C2 2-394 limits assumed): as the sequence (Q6P6C2 2-394 limits assumed) above

[27] = molecular target: T4, Alpha-ketoglutarate-dependent dioxygenase alkB homolog 3 (Homo sapiens, UniProt Q96Q83); assay: Inhibition of ALKBH3 (unknown origin) by fluorescence polarization assay
T4 sequence (Q96Q83 whole entry): T3 sequence (whole entry)

T2 sequence (Q9C0B1 whole entry, the tested form may be a part): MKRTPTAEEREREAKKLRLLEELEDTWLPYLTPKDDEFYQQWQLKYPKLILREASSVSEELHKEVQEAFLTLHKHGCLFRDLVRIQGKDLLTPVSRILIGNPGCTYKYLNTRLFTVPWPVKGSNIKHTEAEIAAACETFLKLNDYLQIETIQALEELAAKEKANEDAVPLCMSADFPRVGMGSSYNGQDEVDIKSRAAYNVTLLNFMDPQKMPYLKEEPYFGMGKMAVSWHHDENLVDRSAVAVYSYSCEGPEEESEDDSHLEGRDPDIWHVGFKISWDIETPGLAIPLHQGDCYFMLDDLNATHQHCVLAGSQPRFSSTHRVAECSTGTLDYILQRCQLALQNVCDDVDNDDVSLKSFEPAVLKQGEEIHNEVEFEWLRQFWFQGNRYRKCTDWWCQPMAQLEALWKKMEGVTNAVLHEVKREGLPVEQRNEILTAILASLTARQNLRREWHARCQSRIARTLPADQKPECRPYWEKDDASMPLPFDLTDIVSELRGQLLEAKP
Chain of RNA demethylase ALKBH5 (Homo sapiens), Q6P6C2 [K132E] (Q6P6C2 whole entry K132E, the tested form may be a part): as the sequence (Q6P6C2 whole entry, the tested form may be a part) above, with K132E counted along it

SMILES: O=Cc1cc(S(=O)(=O)NC(=O)c2cc(C(=O)O)ccn2)c2ccccc2c1O
- inhibition (RNA demethylase ALKBH5 [1]): Dose-dependent-effect
- Kinact (RNA demethylase ALKBH5 [2]): 14.2 min⁻¹
- IC50 (RNA demethylase ALKBH5 [3]): 1430 nM
- Ratio IC50 [4]: 30
- viability at 80 µM (MOLM-13 [5]): 77.6%
- inhibition (RNA demethylase ALKBH5 [6]): Active
- inhibition [7]: inactive
- Activity (MOLM-13 [8]): 12%
- Activity (MOLM-13 [9]): 5.67%
- Activity (RNA demethylase ALKBH5 [10]): Active; Mass Peak Of 28,181.6 Da Observed
- IC50 (RNA demethylase ALKBH5 [11]): 280 nM
- Activity (RNA demethylase ALKBH5 [12]): Active
- Kd (RNA demethylase ALKBH5 [13]): 2800 nM
- IC50 (RNA demethylase ALKBH5 [14]): 200 nM
- Activity (MOLM-13 [15]): 22.22%
- IC50 [16]: 14200 nM
- Activity (MOLM-13 [17]): 26.1%
- Activity (MOLM-13 [18]): 4.11%
- Activity (MOLM-13 [19]): Active
- ΔTm [20]: < 1 °C
- IC50 (RNA demethylase ALKBH5 [21]): 780 nM
- IC50 [22]: 19700 nM
- viability at 40 µM (MOLM-13 [23]): 83%
- Activity (MOLM-13 [24]): 9.16%
- IC50 (RNA demethylase ALKBH5 [25]): 580 nM
- Activity (RNA demethylase ALKBH5 [26]): Active
- IC50 [27]: 11700 nM
